Like-named read-outs stand apart in the source and are kept apart here.
Tests used:
CB1 receptor [1] = biological target: T1, CB1 receptor (Homo sapiens, UniProt P21554); assay: Binding assay for CB1 agonists or inverse agonists (SK-N-MC membranes, [3H]-CP-55,940); conditions: for IC50: Cannabinoid CB1 Receptor Binding IC50, calculated by linear regression from percent inhibition at various test concentrations; for inhibition at 1 µM: read-out: CB1 receptor binding percent inhibition, test concentration 1 μM (footnote 1)
T1 construct: expressed in transfected cells
T1 sequence (P21554 whole entry): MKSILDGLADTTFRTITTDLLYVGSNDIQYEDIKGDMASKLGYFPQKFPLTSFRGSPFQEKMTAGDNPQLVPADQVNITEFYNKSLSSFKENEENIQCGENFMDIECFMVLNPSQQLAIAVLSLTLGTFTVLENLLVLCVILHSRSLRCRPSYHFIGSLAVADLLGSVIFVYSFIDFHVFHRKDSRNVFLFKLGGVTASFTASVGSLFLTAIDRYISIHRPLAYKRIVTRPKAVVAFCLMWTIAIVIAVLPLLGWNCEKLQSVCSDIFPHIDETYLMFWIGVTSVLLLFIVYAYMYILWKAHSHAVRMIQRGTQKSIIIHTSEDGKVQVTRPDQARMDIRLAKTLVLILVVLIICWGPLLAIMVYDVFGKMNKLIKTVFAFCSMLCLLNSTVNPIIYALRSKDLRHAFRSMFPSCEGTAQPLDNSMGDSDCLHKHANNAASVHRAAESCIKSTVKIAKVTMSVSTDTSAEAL
Summary of the method: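 Membranes from SK-N-MC cells stably expressing human CB1 incubated with compound and [3H]-CP-55,940 ([…]) for 90 min at 30° C in Tris-HCl pH 7.5, MgCl2, EDTA, fatty-acid-free BSA. Non-specific binding defined with 10 uM WIN 55,212; filtration, scintillation count; IC50 by linear regression.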

CB2 receptor [2] = biological target: T2, CB2 receptor (Homo sapiens, UniProt P34972); assay: Binding assay for CB2 agonists or inverse agonists (SK-N-MC membranes, [3H]-CP-55,940); conditions: for IC50: Cannabinoid CB2 Receptor Binding IC50, calculated by linear regression from percent inhibition at various test concentrations; for inhibition at 0.2 µM: read-out: CB2 receptor binding percent inhibition, test concentration 0.2 μM (footnote 2)
T2 construct: expressed in transfected cells
T2 sequence (P34972 whole entry): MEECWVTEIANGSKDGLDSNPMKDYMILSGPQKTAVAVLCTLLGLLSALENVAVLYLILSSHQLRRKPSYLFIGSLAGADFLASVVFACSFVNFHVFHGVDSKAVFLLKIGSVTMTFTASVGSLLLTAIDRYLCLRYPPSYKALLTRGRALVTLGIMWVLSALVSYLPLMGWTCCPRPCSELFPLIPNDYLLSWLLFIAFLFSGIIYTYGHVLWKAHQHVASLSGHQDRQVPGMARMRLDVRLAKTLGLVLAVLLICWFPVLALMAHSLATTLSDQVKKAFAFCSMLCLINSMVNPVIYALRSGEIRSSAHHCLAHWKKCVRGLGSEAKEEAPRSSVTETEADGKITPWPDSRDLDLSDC
Summary of the method: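 Membranes from SK-N-MC cells stably expressing human CB2 were incubated with radioligand and test compounds for 90 min at 30 °C in Tris-HCl buffer, pH 7.5, with MgCl2, EDTA and fatty-acid-free BSA. Filter-bound radioactivity was counted; IC50 was derived by linear regression of percent inhibition.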

Male CD-1 mice = assay: Oil of mustard induced colitis model; assay type: in vivo
From the text: In the distal colon, the oil of mustard colitis model is characterized by a discontinuous pattern of mucosal epithelial damage, submucosal edema, infiltration of inflammatory cells (including macrophages, neutrophils and lymphocytes) into the mucosa and submucosa, increased wet weight of the colon, shrinkage of the colon length, diarrhea and apparent inflammation (see, Kimball E. S., Palmer J. M., D'Andrea M. R., Homby P. J. and Wade P. R., Acute colitis induction by oil of mustard results in later development of an IBS-like accelerated upper GI transit in mice, Am. J Physiol. Gastrointest. Liver Physiol., 2005, 288: G 1266-1273).
Male CD-1 mice (Charles River Laboratories, Kingston, N.C.) (9-11 weeks old) and fresh oil of mustard (OM) (allyl isothiocyanate, 98% purity, Sigma-Aldrich St. Louis, Mo.) were used.
The mice (9 per treatment group) were briefly anesthetized with ketamine/xylasine (Sigma, St. Louis, Mo.) and a solution of 0.5% OM in 30% ethanol (50 μL) was administered intracolonically (to a depth of 4 cm) via syringe (equipped with a ball-tipped 22 G needle).
A test compound was orally administered one day prior to colitis induction for assessing a prophylactic regimen or one day post-induction for assessing a therapeutic regimen. A test compound was orally administered daily thereafter. Two days after OM administration, the last test compound dose was administered.
Three days after OM administration, the animals were sacrificed. The colons were resected, examined for signs of inflammation, weighed after removing fecal contents and the length from the aboral end of the cecum to the anus was measured. The fecal contents were examined for signs of diarrhea. The distal colon between the 1st and the 4th centimeter was removed and placed in 10% neutral buffered formalin for histological analysis.
The macroscopic observations of colon inflammation (a measure of colon damage), colon weight and length and stool consistency and appearance were assigned a score and used to evaluate colitis severity.
The four observation scores for each colon were combined, whereby a combined score of 0 represents a normal colon and a combined score of 15 represents a maximally affected colon. Statistical analyses were performed in Graphpad Prism 4.0 using ANOVA.
Histological analyses of tissues consisted of staining paraffin-embedded tissue sections with hematoxylin-eosin dye. The tissues were examined using light microscopy by an investigator who was blinded to the sample groups.
The microscopic observations of epithelial damage, cellular infiltration and damage or alteration of smooth muscle architecture (a measure of muscle damage) were assigned a score and used to evaluate colitis severity.
The scores for each colon were combined, whereby a combined score of 0 represents a normal colon and a combined score of 9 represents a maximally affected colon. Statistical analyses were performed in Graphpad Prism 4.0 using ANOVA.
The Macroscopic Score and Microscopic Score results for each treatment group in the prophylactic and therapeutic regimens were each combined into a mean score and expressed as % inhibition of colitis (% Inh). Test (#) represents the number of experiments at each dose level.

CB1 receptor [3] = biological target: T1, CB1 receptor; assay: cell-based; conditions: CB1 Receptor Functional Agonist EC50, SK-N-MC cells, forskolin induced β-galactosidase activity
Summary of the method: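 SK-N-MC cells stably co-expressing human CB1 and a CRE-β-galactosidase reporter; forskolin-induced β-gal activity measured after compound treatment, as % of vehicle-treated cells (100%). EC50 by linear regression from concentration series; otherwise % change at a single concentration.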

CB2 receptor [4] = biological target: T2, CB2 receptor; assay: Functional cell-based assay, CB2 receptor mediated change in CRE β-gal expression (SK-N-MC cells); conditions: CB2 Receptor Functional Agonist EC50, forskolin induced β-galactosidase activity, SK-N-MC cells
From the text: The CB1 and CB2 receptors are G-protein coupled receptors (GPCR), which influence cell function via the Gi-protein. These receptors modulate the activity of intracellular adenylate cyclase, which in turn produces the intracellular signal messenger cyclic-AMP (cAMP).
At baseline, or during non-ligand bound conditions, these receptors are constitutively active and tonically suppress adenylate cyclase activity. The binding of an agonist causes further receptor activation and produces additional suppression of adenylate cyclase activity. The binding of an inverse agonist inhibits the constitutive activity of the receptors and results in an increase in adenylate cyclase activity.
By monitoring intracellular adenylate cyclase activity, the ability of compounds to act as agonists or inverse agonists can be determined.
Test compounds were evaluated in SK-N-MC cells which, using standard transfection procedures, were stably transfected with human cDNA for pcDNA3-CRE β-gal and pcDNA3 CB1 receptor (human) or pcDNA3 CB2 receptor (human). By expressing CRE β-gal, the cells produced β-galactosidase in response to CRE promoter activation by cAMP. Cells expressing CRE β-gal and either the human CB1 or CB2 receptor will produce less β-galactosidase when treated with a CB1/CB2 agonist and will produce more β-galactosidase when treated with a CB1/CB2 inverse agonist.
The cells were grown in 96-well plates under standard cell culture conditions at 37° C. in a 5% CO2 atmosphere and culture media (wherein the media was supplemented with 2 mM L-glutamine, […] sodium pyruvate, 10% FBS (fetal bovine serum) and antibiotics).
For cells expressing CRE β-gal and the CB2 receptor, CB2 agonists reduced β-galactosidase activity in a dose-dependent manner and CB2 inverse agonists increase β-galactosidase activity in a dose-dependent manner.
The change in forskolin induced β-galactosidase activity was determined by setting a vehicle treated cell's activity value at 100% and expressing the β-galactosidase activity measured in a corresponding compound treated cell as a percent of the vehicle treated cell activity.
The EC50 value for functional activity for compounds tested was calculated by linear regression and was obtained from studies in which varying compound concentrations were used.

[5] = test concentration 0.2 μM (footnote 2), 0.2 µM
[6] = Therapeutic Regimen, 5 mg/kg oral, 5 mg/kg
[7] = Prophylactic Regimen, 2.5 mg/kg oral
[8] = Prophylactic Regimen, 5 mg/kg oral
[9] = Therapeutic Regimen, 5 mg/kg oral
[10] = read-out: CB1 receptor binding percent inhibition, test concentration 0.2 μM (footnote 2)

SMILES	IC50 (CB1 receptor [1]) [nM]	IC50 (CB2 receptor [2]) [nM]	EC50 (CB1 receptor [3]) [nM]	EC50 (CB2 receptor [4]) [nM]	inhibition at 0.2 µM (CB2 receptor [2]) [%]	inhibition at 0.2 µM (CB1 receptor [1]; [10]) [%]	other results
O=C(N[C@@H](CO)c1ccccc1)c1n[nH]c2c1CCCCC2Cc1cccc(Cl)c1 (stereo in doubt) [Cpd 228, (8S*)-8-(3-chloro-benzyl)-1,4,5,6,7,8-hexahydro-cycloheptapyrazole-3-carboxylic acid [(1R)-2-hydroxy-1-phenyl-ethyl]-amide]							CB1 receptor binding percent inhibition (CB1 receptor [1]; [5]): ^(2)0%; CB2 receptor binding percent inhibition (CB2 receptor [2]; [5]): ^(2)45%; % Inh (Macro), % inhibition of colitis, macroscopic score (Male CD-1 mice; [6]): 51.7 ± 13.2%
O=C(N[C@@H](CO)c1ccccc1)c1n[nH]c2c1CCCCC2Cc1cccc(Cl)c1 (stereo in doubt) [Cpd 229, (8R*)-8-(3-chloro-benzyl)-1,4,5,6,7,8-hexahydro-cycloheptapyrazole-3-carboxylic acid [(1R)-2-hydroxy-1-phenyl-ethyl]-amide]	60	20	60	2			CB1 receptor binding percent inhibition (CB1 receptor [1]; [5]): 73%; CB2 receptor binding percent inhibition (CB2 receptor [2]; [5]): 95%; % Inh (Macro), % inhibition of colitis, macroscopic score (Male CD-1 mice; [6]): 56.9 ± 11.6%
C[C@H](NS(=O)(=O)/C=C/c1n[nH]c2c1CCCCC2Cc1cccc(F)c1)c1ccccc1 (stereo partly drawn) [Cpd 96, (2E)-2-[8-(3-fluoro-benzyl)-1,4,5,6,7,8-hexahydro-cycloheptapyrazol-3-yl]-ethenesulfonic acid [(1S)-1-phenyl-ethyl]-amide]							inhibition at 1 µM (CB1 receptor [1]): 0%; inhibition at 0.015 µM (CB2 receptor [2]; test concentration 0.015 μM (footnote 7), read-out: CB2 receptor binding percent inhibition): 50%; inhibition at 1 µM (CB2 receptor [2]; test concentration 1 μM (footnote 1), read-out: CB2 receptor binding percent inhibition): 94%; CB2 receptor binding percent inhibition (CB2 receptor [2]; test concentration not stated): 72%; % Inh (Macro), % inhibition of colitis, macroscopic score (Male CD-1 mice; [7]): 8.0 ± 16.7%; % Inh (Macro), % inhibition of colitis, macroscopic score (Male CD-1 mice; [8]): 10.8 ± 13.4%; % Inh (Macro), % inhibition of colitis, macroscopic score (Male CD-1 mice; [9]): 7.6 ± 11.5%
C[C@H](NS(=O)(=O)/C=C/c1n[nH]c2c1CCCCC2Cc1ccc(F)cc1)c1ccccc1 (stereo partly drawn) [Cpd 108, (2E)-2-[8-(4-fluoro-benzyl)-1,4,5,6,7,8-hexahydro-cycloheptapyrazol-3-yl]-ethenesulfonic acid [(1S)-1-phenyl-ethyl]-amide]							inhibition at 0.5 µM (CB1 receptor [1]; read-out: CB1 receptor binding percent inhibition, test concentration 0.5 μM (footnote 10)): 33%; inhibition at 1 µM (CB1 receptor [1]): 55%; CB1 receptor binding percent inhibition (CB1 receptor [1]; test concentration not stated): 44%; CB2 receptor binding percent inhibition (CB2 receptor [2]; test concentration not stated): 100%; % Inh (Macro), % inhibition of colitis, macroscopic score (Male CD-1 mice; [7]): 51.2 ± 19.1%; % Inh (Macro), % inhibition of colitis, macroscopic score (Male CD-1 mice; [8]): 13.4 ± 13.3%
C[C@H](NC(=O)c1nn(-c2cc(Cl)ccc2Cl)c2c1CCCC/C2=C\c1ccc(Cl)cc1)c1ccccc1 [Cpd 198, (8E)-8-(4-chloro-benzylidene)-1-(2,5-dichloro-phenyl)-1,4,5,6,7,8-hexahydro-cycloheptapyrazole-3-carboxylic acid [(1S)-1-phenyl-ethyl]-amide]	20		20		68		inhibition at 0.2 µM (CB1 receptor [1]; read-out: CB1 receptor binding percent inhibition): 87%; % Inh (Macro), % inhibition of colitis, macroscopic score (Male CD-1 mice; [9]): 41.0 ± 17%
Cn1nc(C(=O)N[C@@H](CO)c2ccccc2)c2c1/C(=C/c1cccc(F)c1)CCCC2 [Cpd 242, (8E)-8-(3-fluoro-benzylidene)-1-methyl-1,4,5,6,7,8-hexahydro-cycloheptapyrazole-3-carboxylic acid [(1R)-2-hydroxy-1-phenyl-ethyl]-amide]	20	100	30	11	50	80	
Cn1nc(C(=O)N[C@H](CO)Cc2ccc(O)cc2)c2c1/C(=C/c1cccc(F)c1)CCCC2 [Cpd 244, (8E)-(2S)-8-(3-fluoro-benzylidene)-1-methyl-1,4,5,6,7,8-hexahydro-cycloheptapyrazole-3-carboxylic acid [1-hydroxymethyl-2-(4-hydroxy-phenyl)-ethyl]-amide]	100	20	600	5	78	68	
COC(=O)[C@@H](Cc1ccc(F)cc1)NC(=O)c1n[nH]c2c1CCCC/C2=C\c1cccc(Cl)c1 [Cpd 245, (8E)-(2R)-2-{[8-(3-chloro-benzylidene)-1,4,5,6,7,8-hexahydro-cycloheptapyrazole-3-carbonyl]-amino}-3-(4-fluoro-phenyl)-propionic acid methyl ester]	6	2	80	1	93	68	
COC(=O)[C@@H](Cc1ccc(F)cc1)NC(=O)c1n[nH]c2c1CCCC/C2=C\c1ccc(Cl)cc1 [Cpd 247, (8E)-(2R)-2-{[8-(4-chloro-benzylidene)-1,4,5,6,7,8-hexahydro-cycloheptapyrazole-3-carbonyl]-amino}-3-(4-fluoro-phenyl)-propionic acid methyl ester]	2	1	8	4	96	91	

Source: patent US8378117B2 (priority 2005, dated 2013)
